The conditions of assay [1]: compared with p277; cited from earlier work.
In assay [2] the test system is Peripheral mononuclear cells (PBMC) of IDDM patients. Kind of assay: T-cell proliferative response of PBMC from newly diagnosed IDDM patients (Example 3). The class given is cell-based, human. The note with it: antigen 10 μg/ml, 6 days, SI more than 2.0 positive. On the procedure:
To determine the T-cell responses to the various hsp60 peptides, lymphocytes from the peripheral blood of newly diagnosed (2 weeks-4 months) IDDM patients were tested in a proliferation assay. 10-20 ml of blood were removed into a sterile tube containing heparin as anti-coagulant and diluted in PBS 1:2. Peripheral mononuclear cells (PBMC) were isolated by centrifuging the blood over a lymphoprep layer. The PBMC were tested for proliferation in triplicates, in the presence of the various antigens (10 μg/ml) for 6 days using the incorporation of [^3H]-thymidine as a measure of proliferation. The antigens tested were human hsp60 or the hsp60 peptides p277(Val^6-Val^11), p12, p32 and control peptide p278. The T cell proliferative response is depicted as stimulation index (SI): The ratio between peptide-stimulated thymidine incorporation and background (no antigen added) thymidine incorporation by the T cells.

Assay [3] has as its system draining popliteal lymph node lymphocytes. The assay can be described thus: T-cell proliferation of draining lymph node cells of NOD mice immunized with hsp60 peptides in CFA (Example 1, FIG. 2). The class given is cell-based. The following applies: NOD mice immunized with peptide emulsified in CFA in hind foot pads, assayed after 10 days. On the procedure:
(iii) T-Cell proliferation to peptides. Mice. Nine week old NOD mice or mice of other strains were immunized in the hind foot pads with 0.1 ml of an emulsion containing 25 μg peptide in complete Freund's adjuvant (CFA; Difco, Detroit, Mich.) mixed with an equal volume of phosphate-buffered saline (PBS). The draining popliteal lymph nodes were removed 10 days later and suspensions of lymphocytes in triplicate cultures were tested for proliferation in the presence of the various peptides (5 μg/ml) using the incorporation of [^3H]-thymidine as described (Elias et al., 1991).
The immunogenicity of the hsp60 peptides p12, p32, p277(Val^6-Val^11) and p278 in NOD mice was tested by immunizing the mice with the peptides emulsified in CFA in the hind foot pads, and assaying the proliferative responses of draining lymph node cells after 10 days as described above in section iii(a).

The next assay relates to NOD/Lt female mice. The assay can be described thus: Treatment of NOD mice with peptides in IFA: diabetes and mortality (Example 2). The class given is in vivo. The note with it: 100 μg peptide in IFA s.c., nine-week old NOD/Lt females; for Diabetes (%): persistent blood glucose over 11.1 mmol/l at 25 weeks of age. The procedure: (iv) Treatment and follow-up. Peptides, […], in PBS, were emulsified with an equal volume of IFA and injected subcutaneously into 10-week-old NOD females as described (Elias and Cohen, 1995). Control mice received an equal volume of PBS emulsified in IFA. The mice were monitored monthly for non-fasting blood glucose at 10am using the Blood Glucose Sensor (MediSense. Inc., Waltham, Mass.). […] Histological examination of the islets of the pancreas was done on sections stained with hematoxylin and eosin. The sections were scored independently by two observers who both were unaware of the identity of the groups. The chi square test was used to ascertain the statistical differences between the various treatments.
To test whether the p12 and p32 peptides can block the progression of diabetes as p277(Val^6-Val^11), the p277(Val6-Val^11), p12 or p32 peptides (100 μg in a 0.1 cc emulsion of IFA) were administered subcutaneously to groups of 10-12 nine-week old NOD/Lt female mice of the Jackson Laboratory, Bar-Harbor, Me. Diabetes, determined as persistent blood glucose levels over 11.1 mmol/l, was tested at 25 weeks of age. Control mice were untreated or were treated with p278.

The nature of assay [4]: Cross-reactivity with native peptide by T-cell and antibody assays. From the text: (ii) Antigens. […] Whenever unspecified, the human sequence is intended.

Marks after values point to notes of the source that are not given here.

Regarding “VLGGGVALLRVIPALDSLTPANED [p277(Val^6-Val^11)]”, in assay [1], the “activity in the treatment of diabetes” value was “as active as p277”. The “T-cell proliferative response (SI)” value is 4.5 in assay [2] (Patient 1); 5.0 in assay [2] (Patient 2); 5.6 in assay [2] (Patient 3); 1.0 in assay [2] (Patient 4); 1.1 in assay [2] (Patient 5); 1.3 in assay [2] (Patient 6). Also, the “T-cell proliferative response (SI)” value was 3.9 in assay [2] (Patient 7) and 1.2 in assay [2] (Patient 8). Moreover, the “immunogenicity (proliferative responses of draining lymph node cells)” value in assay [3] was “strongly immunogenic”. Also, the “Mortality (%)” value with NOD/Lt female mice is 5* %. Moreover, the “therapeutic effect in treatment of diabetes” value in the assay on NOD/Lt female mice is “effective in treatment of diabetes”. Further, the figures for the “Diabetes (%)” value in the assay with NOD/Lt female mice and with NOD/Lt female mice (listed as p277 (Val^6 - Val^11)) were 10% and 10* %, respectively. In addition, the “cross-reactivity with the native peptide” value in assay [4] is given as “completely cross-reactive”.

These data come from patent US6682897B1, “Peptides derived from human heat protein 60 for treatment of diabetes, compositions, methods and kits” (Yeda Research and Development Co. Ltd., priority 1995, dated 2004).
